Patent US4613609A, “Antiarrhythmic imidazoliums” (Schering A. G., priority 1984, dated 1986)
Where a name gives a salt, the structure may show the parent alone. Read-outs that look alike come from different tables or passages of the source.

System: Canine Purkinje fiber
Assay: In vitro electro-physiological screen using canine Purkinje fibers (action potential characteristics, microelectrode)
Format: cell-based
Conditions: for EC10: read-out: C10 APD95: concentration of drug which causes a 10% increase or decrease (-) in APD95 from control value; for Emax at 10 µM / Emax at 100 µM / Emax at 30 µM: read-out: MaxAPD95: maximum observed effect on APD95 from control value; for Vmax: change in the rate of rise of phase 0 of the action potential from control value (in words): concentration not given, NE = no effect; for EC20: read-out: C20 APD95: concentration of drug which causes a 20% increase or decrease (-) in APD95 from control value; for inhibition at 100 µM: at 100 (concentration, μM)
Protocol: The primary method for evaluating these compounds as antiarrhythmic agents was an in vitro electro-physiological screen using canine Purkinje fibers. Using conventional microelectrode techniques the effects of the drugs on the action potential characteristics of the Purkinje fiber were measured. Both Class I and Class III antiarrhythmic agents can be disinguished using this method.

[1] = Canis lupus familiaris, purkinje
[2] = Canis lupus familiaris, purkinje, at 10 μM, basic cycle length 1000 milliseconds
[3] = Canis lupus familiaris, purkinje, normal stimulated beat, basic cycle length 1000 milliseconds, NR = not reached
[4] = Canis lupus familiaris, purkinje, basic cycle length 1000 milliseconds
[5] = Canis lupus familiaris, purkinje, read-out: Vmax: change in the rate of rise of phase 0 of the action potential from control value
[6] = Canis lupus familiaris, purkinje, at 10 (concentration, μM), read-out: Vmax: change in the rate of rise of phase 0 of the action potential from control value
[7] = normal stimulated beat, basic cycle length 1000 milliseconds, NR = not reached

Row | Compound | Emax at 10 µM [2] | EC10 [3] | EC20 [3] | further results
1 | CCCCCCC[n+]1ccn(C(C)CCCc2ccc(Cl)cc2)c1 (stereo not shown) [Compound I-25, 1-[4-(4-Chlorophenyl)-1-methylbutyl]-3-heptylimidazolium 4-methylbenzenesulfonate] |  |  |  | EC10 [1]: 10 µM; Emax at 10 µM [1]: 10%
2 | Nc1ccc(C(=O)Cn2ccnc2)cc1 [II-5, 1-(4-Aminophenyl)-2-(1H-imidazol-1-yl)ethanone] | 13% | 4 µM |  | Vmax: change in the rate of rise of phase 0 of the action potential from control value (in words): Minimal
3 | O=C(Cn1ccnc1)c1ccc([N+](=O)[O-])cc1 [II-3, 2-(1H-Imidaz-1-yl)-1-(4-nitrophenyl)ethanone hydrochloride] |  | 20 µM | 50 µM | Emax at 100 µM [4]: 29%
4 | CCCCCCC[n+]1ccn(C/C=C\Cc2ccc(Cl)cc2)c1 [Compound I-42, (Z)-1-[4-(4-Chlorophenyl)-2-butenyl]-3-heptylimidazolium dihydrogenphosphate] |  | 38 µM |  | Emax at 100 µM [4]: 12%; inhibition at 100 µM [5]: 26%
5 | CCCCCCC[n+]1ccn(CCCCc2ccc(Cl)cc2)c1 [Compound I-1, 1-[4-(4-Chlorophenyl)butyl]-3-heptylimidazolium chloride] |  | 12 µM |  | Emax at 30 µM (Canis lupus familiaris, purkinje, at 30 μM, basic cycle length 1000 milliseconds): 27%; inhibition at 15 µM (Canis lupus familiaris, purkinje, at 15 (concentration, μM), read-out: Vmax: change in the rate of rise of phase 0 of the action potential from control value): 20%
6 | O=[N+]([O-])c1ccc(CCn2ccnc2)cc1 [II-8, 1-[2-(4-Nitrophenyl)ethyl]-1H-imidazole hydrochloride] |  | 7 µM | 30 µM | Emax at 100 µM [4]: 29%; inhibition at 0.1 µM (Canis lupus familiaris, purkinje, at 0.1 (concentration, μM), read-out: Vmax: change in the rate of rise of phase 0 of the action potential from control value): 15%
7 | CS(=O)(=O)Nc1ccc(C(O)Cn2ccnc2)cc1 (stereo not shown) [II-4, N-[4-(1-Hydroxy-2-(1H-imidazol-1-yl)ethyl]phenyl]methanesulfonamide] | 23% | 2 µM | 7 µM | inhibition at 10 µM [6]: 15%
8 | C[n+]1ccn(CC(O)c2ccc(NS(C)(=O)=O)cc2)c1 (stereo not shown) [Compound I-38, 1-[2-Hydroxy-2-[4-[(methanesulfonyl)amino]phenyl]ethyl]-3-methylimidazolium iodide] | 63% | 0.3 µM | 0.8 µM | inhibition at 10 µM [6]: 5%
9 | CCCCC[n+]1ccn(CCCCc2ccc(Cl)cc2)c1 [Compound I-20, 1-[4-(4-Chlorophenyl)butyl]-3-pentylimidazolium dihydrogenphosphate] | 23% | 0.8 µM | 6 µM | 
10 | CCCCn1cc[n+](CCCCc2ccc(Cl)cc2)c1 [Compound I-21, 1-Butyl-3-[4-(4-chlorophenyl)butyl]imidazolium dihydrogenphosphate] | 25% | 2 µM | 6 µM | 
11 | Cc1n(C)cc[n+]1CCCCc1ccc(NS(C)(=O)=O)cc1 [Compound I-30, 1,2-Dimethyl-3-[4-[4-[[methanesulfonyl]amino]phenyl]butyl]imidazolium methanesulfonate] | 23% | 1 µM | 7 µM | 
12 | Cn1cc[n+](CCc2ccc(NS(C)(=O)=O)cc2)c1 [Compound I-43, 1-Methyl-3-[2-[4-((methylsulfonyl)amino)phenyl]ethyl]-1H-imidazolium iodide] | 21% | 2 µM | 8 µM | 
13 | CCCCCCCn1cc[n+](CCCCc2ccc(OC)cc2)c1.[Br-] [Compound I-7] |  |  |  | MaxAPD95: maximum observed effect on APD95 from control value (at 10 μM, basic cycle length 1000 milliseconds): 26%; Vmax: change in the rate of rise of phase 0 of the action potential from control value (at 10 (concentration, μM), 10 µM): -12%; EC10 [7]: 0.5 µM; EC20 [7]: 8 µM
14 | CCCCCCCn1cc[n+](CCCCc2ccc(NS(C)(=O)=O)cc2)c1.O=P([O-])(O)O [Compound I-22, 1-Heptyl-3-[4-[4-[[(methyl)sulfonyl]amino]phenyl]butyl]imidazolium dihydrogenphosphate] | 39% | 1.3 µM | 3 µM | Vmax: change in the rate of rise of phase 0 of the action potential from control value (in words): Minimal
15 | CCCCCCC[n+]1ccn(CCCCc2ccc(NC(C)=O)cc2)c1.Cc1ccc(S(=O)(=O)[O-])cc1 [Compound I-14, 1-[4-(4-(Acetylamino)phenyl)butyl]-3-heptylimidazolium 4-methylbenzenesulfonate] |  |  |  | EC10 [1]: 13 µM; EC20 [1]: 30 µM; Emax at 30 µM [1]: 21%; Vmax: change in the rate of rise of phase 0 of the action potential from control value (in words): increased
16 | Cc1n(CCCCc2ccc(Cl)cc2)cc[n+]1C [Compound I-34, 1-[4-(4-Chlorophenyl)butyl]-2,3-dimethylimidazolium chloride] | 25% | 1.4 µM | 6 µM | 
17 | Cn1cc[n+](CC(=O)c2ccc(NS(C)(=O)=O)cc2)c1 [Compound I-44, 1-Methyl-3-[2-[4-((methylsulfonyl)amino)phenyl]-2-oxoethyl]-1H-imidazoliumbromide] | 38% | 1 µM | 2.3 µM | 
18 | CS(=O)(=O)Nc1ccc(C(=O)Cn2ccnc2)cc1 [II-2, N-[4-(1H-Imidaz-1-ylacetyl)phenyl]methanesulfonamide] |  | 3 µM | 14 µM | Emax at 100 µM [4]: 67%; inhibition at 100 µM [5]: 15%
19 | CCCCCCC[n+]1ccn(CCC#Cc2ccc(Cl)cc2)c1 [Compound I-29, 1-[4-(4-Chlorophenyl)-3-butynyl]-3-heptylimidazolium 4-methylbenzenesulfonate] |  |  |  | EC10 [1]: 20 µM; Emax at 30 µM [1]: 15%; inhibition at 20 µM [5]: 20%
20 | O=[N+]([O-])c1ccc(CCCCn2ccnc2)cc1 [II-1, 1-[4-(4-Nitrophenyl)butyl]imidazole hydrochloride] | 27% | 1.2 µM | 4 µM | 
21 | CCCCCCC[n+]1ccn(CCCCc2ccc(F)cc2)c1 [Compound I-19, 1-[4-(4-Fluorophenyl)butyl]-3-heptylimidazolium dihydrogenphosphate] | 20% | 1 µM | 10 µM | inhibition at 10 µM [6]: 6%
22 | CCCCCCCn1cc[n+](CC(=O)c2ccc(NS(C)(=O)=O)cc2)c1 [Compound I-39, 1-Heptyl-3-[2-[4-[(methanesulfonyl)amino]phenyl]-2-oxoethyl]imidazolium br omide] | 21% | 1.7 µM | 9 µM | 
23 | O=[N+]([O-])c1ccc(C(O)Cn2ccnc2)cc1 (stereo not drawn) [II-6, α-(4-Nitrophenyl)-1H-imidazole-1-ethanol] |  | 15 µM | 43 µM | Emax at 100 µM [4]: 28%
24 | CCC[n+]1ccn(CCCCc2ccc(Cl)cc2)c1.O=P([O-])(O)O [Compound I-16, 1-[4-(4-Chlorophenyl)butyl]-3-propylimidazolium dihydrogenphosphate] | 11% | 6 µM |  | Vmax: change in the rate of rise of phase 0 of the action potential from control value (at >10 (concentration, μM)): -20%
25 | CS(=O)(=O)Nc1ccc(CCn2ccnc2)cc1 [II-7, N-[4-[2-(1H-Imidazol-1-yl)ethyl]phenyl]methanesulfonamide] |  | 2 µM | 10 µM | Emax at 100 µM [4]: 47%
